Activity calls are given as the source filed them. No rule for the calls is given here.

For the test, the target named is Nuclear receptor coactivator 1 (Homo sapiens) (UniProt Q15788). Description: SRC1 (NCOA1) coactivator inhibitors, dose response, cell-based, luciferase reporter, luminescence (AID 602235).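 Also: cells transfected with pGL4.31 reporter plus pBIND-SRC1 vector; potency is for inhibitors that lower SRC1 reporter luminescence.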
Chain of Nuclear receptor coactivator 1 (Homo sapiens) (Q15788 whole entry, looked up): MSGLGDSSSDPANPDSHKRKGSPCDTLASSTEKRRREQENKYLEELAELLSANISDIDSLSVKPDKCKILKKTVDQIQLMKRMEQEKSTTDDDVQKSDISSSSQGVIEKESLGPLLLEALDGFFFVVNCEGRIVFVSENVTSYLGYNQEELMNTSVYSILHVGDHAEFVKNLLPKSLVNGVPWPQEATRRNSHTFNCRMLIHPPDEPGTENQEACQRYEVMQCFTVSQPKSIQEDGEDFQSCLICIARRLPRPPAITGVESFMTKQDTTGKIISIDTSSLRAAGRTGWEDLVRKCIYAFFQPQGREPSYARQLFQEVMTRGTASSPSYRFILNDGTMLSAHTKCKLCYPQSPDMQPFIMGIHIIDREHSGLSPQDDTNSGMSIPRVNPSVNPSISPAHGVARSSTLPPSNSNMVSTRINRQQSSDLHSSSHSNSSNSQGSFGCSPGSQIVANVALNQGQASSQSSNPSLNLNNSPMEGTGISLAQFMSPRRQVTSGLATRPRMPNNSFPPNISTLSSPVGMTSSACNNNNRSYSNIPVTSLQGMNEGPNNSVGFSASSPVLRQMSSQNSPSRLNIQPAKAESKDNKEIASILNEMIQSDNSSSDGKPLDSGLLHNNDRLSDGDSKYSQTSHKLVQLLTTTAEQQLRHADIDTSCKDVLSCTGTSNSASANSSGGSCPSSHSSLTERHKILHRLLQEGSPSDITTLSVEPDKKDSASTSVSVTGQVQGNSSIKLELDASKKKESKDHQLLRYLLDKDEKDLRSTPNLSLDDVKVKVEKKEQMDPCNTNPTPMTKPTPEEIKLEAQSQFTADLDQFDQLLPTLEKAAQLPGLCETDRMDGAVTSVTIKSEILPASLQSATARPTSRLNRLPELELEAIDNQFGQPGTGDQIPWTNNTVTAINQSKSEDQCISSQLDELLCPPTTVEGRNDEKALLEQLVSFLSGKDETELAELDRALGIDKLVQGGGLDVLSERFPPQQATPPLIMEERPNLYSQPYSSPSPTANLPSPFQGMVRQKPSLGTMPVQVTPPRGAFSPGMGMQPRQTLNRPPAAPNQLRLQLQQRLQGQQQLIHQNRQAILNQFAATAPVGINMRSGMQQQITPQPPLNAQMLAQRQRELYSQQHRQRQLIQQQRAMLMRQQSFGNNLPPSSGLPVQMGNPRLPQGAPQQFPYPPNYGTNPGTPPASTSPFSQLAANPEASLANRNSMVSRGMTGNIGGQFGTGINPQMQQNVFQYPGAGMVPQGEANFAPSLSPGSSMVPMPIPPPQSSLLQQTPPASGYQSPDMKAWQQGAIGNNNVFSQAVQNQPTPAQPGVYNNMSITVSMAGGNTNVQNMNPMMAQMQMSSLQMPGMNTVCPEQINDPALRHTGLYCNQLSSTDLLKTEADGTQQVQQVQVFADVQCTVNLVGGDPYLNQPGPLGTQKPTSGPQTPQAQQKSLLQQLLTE
On to `O=C(O)CN1C(=O)/C(=C\c2ccccc2OCc2ccc(Cl)cc2Cl)SC1=S`, for which the IC50 result is “inactive”.

With `COc1cccc(CNc2ncnc3ccc(-c4c(C)noc4C)cc23)c1`, the IC50 was > 35.9 µM (inactive).

On to `COc1ccccc1NS(=O)(=O)c1cccc(NC(=O)c2cncc(Br)c2)c1`, for which the IC50 result was “inactive”.

In the case of `CCCCC(CC)COCCCN=Cc1c(O)[nH]c(=S)[nH]c1=O` (stereo unspecified), the IC50 result was “inactive”.

For `N#Cc1c2ccc(O)cc2n2ccccc12`, the IC50 was > 35.9 µM (inactive).

In the case of `Cc1ccccc1C(=O)/C(C#N)=N/Nc1c(C)n(C)n(-c2ccccc2)c1=O`, the IC50 result was “inactive”.

In the case of `O=C(N/N=C/c1cc([N+](=O)[O-])ccc1O)c1cccc(N2CCCC2=O)c1`, the IC50 entry was “inactive”.

As for `O=C(CCl)N1N=C(c2ccco2)CC1c1ccco1` (stereo unspecified), the IC50 was 5.7 µM.

Turning to `COc1ccc(Oc2nc3c(c(=O)n(C)c(=O)n3C)n2C)cc1`, the IC50 result was “inactive”.

Turning to `O=C(O)c1ccccc1-c1c2cc(I)c(=O)c(I)c-2oc2c(I)c(O)c(I)cc12`, the IC50 is > 35.9 µM (inactive).

On to `Cc1cccn2c(=O)c3cc(C(=O)NCCN4CCOCC4)c(=N)n(Cc4cccnc4)c3nc12`, for which the IC50 result is “inactive”.

As for `CCCCC(=O)OCC(=O)C1(O)Cc2c(O)c3c(c(O)c2C(OC2CC(NC(=O)C(F)(F)F)C(O)C(C)O2)C1)C(=O)c1c(OC)cccc1C3=O` (stereo unspecified), the IC50 is > 35.9 µM (inactive).

In the case of `O=C(OC(c1ccccc1)c1nccc2ccccc12)c1ccccc1` (stereo unspecified), the IC50 is > 11.9 µM (inactive).

Regarding `Cc1c(/C(O)=C2/C(=O)C(=O)N(Cc3cccnc3)C2c2ccccn2)cnn1-c1ccccc1` (stereo unspecified), the IC50 result was “inactive”.

For the compound `CNc1ncnc(Sc2nc(N)nc3nc[nH]c23)c1[N+](=O)[O-]`, the IC50 is > 35.9 µM (inactive).

For the compound `CN(Cc1cnc2nc(N)nc(N)c2n1)c1ccc(C(=O)NC(CCC(=O)O)C(=O)O)c2ccccc12` (stereo unspecified), the IC50 is > 35.9 µM (inactive).

`O=[N+]([O-])c1ccc(N(CCO)CCO)c2c1no[n+]2[O-]`: the IC50 entry was “inactive”.

In the case of `C=CCOc1ccc(/C=C2\SC(=S)N(CCC(=O)O)C2=O)cc1`, the IC50 was > 35.9 µM (inactive).

As for `NC(=S)NN=Cc1ccc(OC(=O)COc2cc(Cl)c(Cl)cc2Cl)cn1`, the IC50 entry was “inactive”.

In the case of `C=CCc1ccccc1OCC(=O)N/N=C/c1ccc(OC(C)=O)cc1OC(C)=O`, the IC50 entry is “inactive”.

As to `Nc1ccn([C@@H]2O[C@H](CO)[C@@H](O)C2O)c(=O)n1` (stereo partly specified), the IC50 result is “inactive”.

As for `COc1ccc2[nH]c(=O)c(CN(CCN3CCCC3)C(=O)Nc3ccccc3Cl)cc2c1`, the IC50 was > 35.8 µM (inactive).

Take `Cc1nc2c(-c3ccc(F)cc3)cnn2c(N)c1-c1ccccc1`: the IC50 entry is “inactive”.

Regarding `CCN1CCN(C(=S)c2ccc(-c3ccccc3)cc2)CC1`, the IC50 is > 35.9 µM (inactive).

Turning to `c1nc2sc3c(c2c2nnnn12)CCCC3`, the IC50 entry was “inactive”.

For the compound `c1cc2c(cn1)cnc1cscc12`, the IC50 entry is “inactive”.

As to `O=C(N/N=C(\c1ccccc1)c1ccccn1)c1ccccc1Cl`, the IC50 entry is “inactive”.

On to `O=C(CCl)N(c1ccccc1)C1CCS(=O)(=O)C1` (stereo unspecified), for which the IC50 was 2.84 µM.

For the compound `O=C(Nc1cccc(Cl)c1)Nc1nnc(-c2ccncc2)s1`, the IC50 was 8 µM.

Regarding `Cc1nn(C(C)(C)C)c(C)c1/C=N/OC(=O)Nc1ccc(Cl)c(Cl)c1`, the IC50 result was “inactive”.

`Cc1ccc(NC(=O)CCC(=O)N/N=C/c2ccc(O)cc2O)cc1`: the IC50 entry was “inactive”.

As to `Cc1ccc(NC(=O)C2CCN(c3ncnc4sc(C)c(C)c34)CC2)cc1S(=O)(=O)N(C)C`, the IC50 entry is “inactive”.

Consider `Nc1nc(CCl)nc(Nc2cccc3ccccc23)n1`, for which the IC50 result is “inactive”.

As to `CCC(=O)c1ccc(Oc2nc3c(c(=O)n(C)c(=O)n3C)n2CC)cc1`, the IC50 is 7.62 µM.

On to `CCN(CC)CCNC(=O)c1ccc(NC(=O)C2CCN(c3ncnc4sc(C)c(C)c34)CC2)cc1`, for which the half-maximal inhibitory concentration (IC50) is 5.4 µM.

With `COc1ccc(CNc2ncc(-c3ccc(F)cc3)n2C)c2ccccc12`, the IC50 result is “inactive”.

Consider `Cc1nc2c(-c3ccc(Cl)cc3)c(C)[nH]n2c(=O)c1Cc1ccccc1`, for which the IC50 is 9.38 µM.

With `O=C(CCCc1nc(-c2ccccc2Cl)no1)NC1CCCC1`, the IC50 result was “inactive”.

As to `O=[N+]([O-])c1ccc2c(c1)-c1ccccc1C2=NO`, the IC50 entry was “inactive”.

With `COc1ccc(NC(=O)CN(C)C(=O)C2(c3ccccc3)CCCC2)cc1`, the IC50 entry was “inactive”.

As to `O=C1CCC/C1=c1\s/c(=C/c2cccnc2)c(=O)n1-c1ccccc1`, the IC50 entry was “inactive”.

Regarding `COc1ccc(/C=C2/SC(=S)N(CCC(=O)O)C2=O)cc1`, the IC50 was > 35.9 µM (inactive).

`O=c1ccc2c(ccc3ncccc32)o1`: the IC50 entry was “inactive”.

For the compound `Cc1sc2ncnc(N3CCC(C(=O)N(C)CC(=O)Nc4cccc(F)c4)CC3)c2c1C`, the IC50 was > 12 µM (inactive).

For the compound `COC(=O)c1cccc2c1-c1ccccc1/C2=N/O`, the IC50 is 9.71 µM.

Turning to `Cc1c(C(=O)N/N=C/C(C)C)[nH]c2ccc([N+](=O)[O-])cc12`, the IC50 result is “inactive”.

For the compound `O=C(Nc1ccncc1)c1ccccc1[N+](=O)[O-]`, the IC50 was 9.54 µM.

Turning to `C=CCn1c(O)c(C(C)=NCc2cc(OC)cc(OC)c2)c(=O)[nH]c1=O`, the IC50 result was “inactive”.

Take `CNc1cccnc1C=NNC(N)=S`: the IC50 was 3.45 µM.

`Cc1ccc(N(Cc2cc(=O)[nH]c3ccccc23)C(=O)CCl)c(C)c1`: the IC50 was 5.31 µM.

For the compound `OCCN1CCN(C(=S)c2ccc(-c3ccccc3)cc2)CC1`, the IC50 was > 35.9 µM (inactive).

In the case of `O=C(Nc1c(-c2ccccc2)[nH][nH]c1=O)c1cccc(C(F)(F)F)c1`, the IC50 was > 35.8 µM (inactive).

Take `O=C(CCCOc1ccc(Cl)cc1Cl)N/N=C/c1ccccc1O`: the IC50 is 6.73 µM.

For `CCN(C(=O)c1cc(S(=O)(=O)N2CCCCC2)c[nH]1)c1ccc(OC)cc1`, the IC50 result was “inactive”.

Take `CC(=O)C1=C(C)NC2=C(C(=O)CC(C)(C)C2)C1C` (stereo unspecified): the IC50 entry is “inactive”.

On to `CCCCC(=O)Nc1cccn2ncnc12`, for which the IC50 entry was “inactive”.

As for `Cc1ccc(O)c(Nc2ncnc3ccc([N+](=O)[O-])cc23)c1`, the IC50 entry is “inactive”.

Regarding `c1ccc(-c2csc3ncnc(NCCN4CCOCC4)c23)cc1`, the IC50 result was “inactive”.

Regarding `COc1ccc(Cc2nnc(SCc3ccc([N+](=O)[O-])cc3)o2)cc1`, the IC50 result is “inactive”.

Consider `Cc1c2ccncc2cc2c1[nH]c1ccccc12`, for which the IC50 was > 35.9 µM (inactive).

With `COc1ccc2c(C#N)c3ccccn3c2c1`, the IC50 entry is “inactive”.

Turning to `CCOc1ccccc1-n1c(SCC(=O)Nc2ccccc2C(=O)O)nc2ccccc2c1=O`, the IC50 is > 35.9 µM (inactive).

`Cc1cccc(C)c1-c1ccc(CN2C(CC(C)C)C(=O)N(Cc3cn(CC4CCCCC4)nn3)CCS2(=O)=O)cc1` (stereo unspecified): the IC50 entry was “inactive”.

On to `COC(CN(C(=O)CCl)C(C(=O)NC1CCCCC1)c1ccccc1C)OC` (stereo unspecified), for which the IC50 is 9.53 µM.

With `COc1ccccc1/C=C\C(=O)NCC(=O)N/N=C/c1cccc(OC)c1O`, the IC50 result was “inactive”.

Take `Cc1ccc(S(=O)(=O)N2[C@@H](c3ccc(C(C)(C)C)cc3)C(C(=O)O)=CC[C@H]2c2ccc(Cl)cc2)cc1`: the IC50 result was “inactive”.

With `CC(=O)NC(c1cc(Cl)c2cccnc2c1O)C(C)C` (stereo unspecified), the IC50 is > 35.9 µM (inactive).

For the compound `CN(Cc1cnc2nc(N)nc(N)c2n1)c1ccc(C(=O)N[C@@H](CCC(=O)O)C(=O)O)cc1`, the IC50 is > 35.9 µM (inactive).

Consider `CC(=O)c1cccc(NC(=O)COc2cc3oc(=O)c(CC(C)O)c(C)c3cc2Cl)c1` (stereo unspecified), for which the IC50 was > 35.9 µM (inactive).

As to `O=C(O)c1ccccc1C(=O)Nc1ccc(Oc2cccc3ccccc23)cc1`, the IC50 is > 35.9 µM (inactive).

`Cc1cccc(C)c1-n1nnnc1C(c1cccs1)N1CCC2(CC1)C(=O)NCN2c1ccccc1` (stereo unspecified): the IC50 entry is “inactive”.

For the compound `CC1CCN(C(=O)c2scc3c2OCCO3)CC1`, the IC50 entry is “inactive”.

For the compound `COc1cccc(/C=N/NC(=O)CNC(=O)C2COc3ccccc3O2)c1O` (stereo unspecified), the IC50 result was “inactive”.

With `COc1ccc(-c2ncncc2-c2ccccc2)c(O)c1`, the IC50 entry is “inactive”.

In the case of `Cc1ccc(/C=C2\SC(=S)N(CCCC(=O)NC3CCCC3)C2=O)cc1`, the IC50 is 3.37 µM.

As to `Cc1ccc(S(=O)(=O)NC(CC(C)C)C(=O)NCC(c2ccco2)N2CCCCC2)cc1` (stereo unspecified), the IC50 is > 35.9 µM (inactive).

Take `CCCCCOc1ccc(/C=C/c2c([N+](=O)[O-])c(=O)n(C)c(=O)n2C)cc1`: the IC50 is 9.08 µM.

As for `COc1ccc(-n2cnc(N)c2C(=O)c2cccc([N+](=O)[O-])c2)cc1`, the IC50 result is “inactive”.

Turning to `CCn1c2ccccc2c2cnc(N=CN(C)C)c(C#N)c21`, the IC50 entry is “inactive”.

As to `CC(=O)c1cc2c(C)cc(=O)oc2cc1O`, the IC50 was > 35.9 µM (inactive).

On to `COc1cc2c(cc1OC)C(C)N(C(=O)c1cccc([N+](=O)[O-])c1)CC2` (stereo unspecified), for which the IC50 result is “inactive”.

With `Cc1ccc(NC(=O)NC2CC(=O)N(c3ccc4c(c3)OCCO4)C2)cc1C` (stereo unspecified), the IC50 is 6 µM.

Consider `CC(=O)NC(c1cc(Cl)c2cccnc2c1O)C1CC1` (stereo unspecified), for which the IC50 result was “inactive”.

For the compound `CCc1ccc(-c2nc(CSCC(=O)NCc3ccco3)c(C)o2)cc1`, the IC50 is > 35.9 µM (inactive).

As to `CCn1c(Oc2ccc(F)cc2)nc2c1c(=O)n(C)c(=O)n2C`, the IC50 was > 12 µM (inactive).

As for `CCc1ccc(/C=C2\SC(=S)N(CCCC(=O)NCCCN3CCOCC3)C2=O)cc1`, the IC50 is 6.27 µM.

With `O=C(CCn1cnc(-c2ccccc2)c1-c1ccccc1)N/N=C/c1ccccc1O`, the IC50 result is “inactive”.

Consider `CCOc1ccc(/C=C2\SC(=S)N(CCCC(=O)NCCCN3CCOCC3)C2=O)cc1`, for which the IC50 was > 12 µM (inactive).

Take `Cc1cc(C)nc(SCc2ccc(C(=O)N/N=C/c3cccc(O)c3O)cc2)n1`: the IC50 was 5.18 µM.

Consider `Oc1ccc(C=NNc2ccccn2)c(O)c1`, for which the IC50 result is “inactive”.

For the compound `O=C1CCC2S/C(=C/Nc3ccc(C(F)(F)F)cc3)C(=O)N12` (stereo unspecified), the IC50 is > 35.9 µM (inactive).

A word on the IC50: it is the point on the concentration scale where inhibition reaches its midpoint.

The values above are taken from PubChem BioAssay AID602235 (The Scripps Research Institute Molecular Screening Center, 2012).
